Experimental findings from patent US8999982B2, “Pharmaceutically active compounds as Axl inhibitors” (Lead Discovery Center GmbH, priority 2010, dated 2015) are described below.

Test [1] deals with T1, Axl (Homo sapiens (Human), UniProt P30530). Briefly: Axl binding assay. As for the experimental part: Binding of the tracer to the kinase is detected using an EU-labeled anti-tag antibody. […] Binding of an inhibitor to the kinase competes for binding with the tracer, resulting in a loss of FRET-signal. At first a compound according to formula (I) was diluted in 20 mM Hepes pH 8.0, 1 mM DTT, 10 mM MgCl2 and 0.01% Brij35.
T1 sequence (P30530 26-894): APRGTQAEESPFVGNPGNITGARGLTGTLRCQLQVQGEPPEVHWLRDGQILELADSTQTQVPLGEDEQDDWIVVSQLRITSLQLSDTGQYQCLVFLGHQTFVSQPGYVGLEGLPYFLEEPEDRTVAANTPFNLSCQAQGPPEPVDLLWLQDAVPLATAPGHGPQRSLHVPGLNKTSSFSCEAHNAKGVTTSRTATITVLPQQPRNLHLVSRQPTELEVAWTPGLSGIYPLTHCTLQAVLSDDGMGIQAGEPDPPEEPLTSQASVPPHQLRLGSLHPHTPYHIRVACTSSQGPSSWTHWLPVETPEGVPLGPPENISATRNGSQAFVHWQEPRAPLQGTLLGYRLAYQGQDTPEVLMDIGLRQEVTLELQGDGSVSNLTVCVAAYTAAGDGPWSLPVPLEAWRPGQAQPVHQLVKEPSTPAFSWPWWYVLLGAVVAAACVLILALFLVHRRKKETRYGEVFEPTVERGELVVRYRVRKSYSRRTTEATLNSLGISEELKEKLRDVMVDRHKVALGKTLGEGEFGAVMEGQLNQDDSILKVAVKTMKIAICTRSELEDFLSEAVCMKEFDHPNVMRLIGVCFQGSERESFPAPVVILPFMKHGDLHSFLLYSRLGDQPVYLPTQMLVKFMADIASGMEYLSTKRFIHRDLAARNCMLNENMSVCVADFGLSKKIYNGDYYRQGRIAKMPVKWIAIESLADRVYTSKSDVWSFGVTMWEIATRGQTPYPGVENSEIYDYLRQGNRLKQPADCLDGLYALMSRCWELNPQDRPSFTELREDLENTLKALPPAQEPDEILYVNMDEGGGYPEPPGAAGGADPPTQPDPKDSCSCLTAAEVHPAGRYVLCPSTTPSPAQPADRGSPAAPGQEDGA

Test [2] deals with T1, Axl. Briefly: Cellular Axl phosphorylation assay. It counts as cell-based. As to conditions: HEK293 cells transfected with Axl cDNA, 1 hour incubation. The protocol:
3. Cellular Axl Phosphorylation Assay:
HEK293 embryonal kidney fibroblasts were transfected in 96 wells with a plasmid containing Axl cDNA. As transfection reagent Superfect (Qiagen) was used. Transfection of the sole vector backbone served as negative control of Axl expression. After overnight incubation the cellular supernatant was replaced with fresh medium. On the following day the Axl-expressing cells were incubated for 1 hour with a compound according to formula (I) at the suitable concentrations. […] The mesoscale technology was used for quantification.

For `CCOc1cn(-c2cccc([N+](=O)[O-])c2)nc1C(=O)Nc1ccc(Oc2ccnc3cc(OC)c(OC)cc23)c(F)c1` [Example 90, N-(4-((6,7-dimethoxyquinolin-4-yl)oxy)-3-fluorophenyl)-4-ethoxy-1-(3-nitrophenyl)-1H-pyrazole-3-carboxamide], the IC50 on Axl [1] and on Axl [2] was < 500 nM in each case.
For `COc1cc2c(Oc3ccc(NC(=O)c4nn(-c5ccc(F)cc5)cc4OC)cc3F)ccnc2cc1OCCCN1CCN(C)CC1` [Example 59, N-[3-fluoro-4-[[6-methoxy-7-[3-(4-methylpiperazin-1-yl)propoxy]-4-quinolyl]oxy]phenyl]-1-(4-fluorophenyl)-4-methoxy-pyrazole-3-carboxamide], the IC50 at Axl [1] and against Axl [2] was < 500 nM in each case.
For the molecule `CCOc1cn(-c2ccc(F)cc2C)nc1C(=O)Nc1ccc(Oc2ccnc3cc(OCCCN4CCOCC4)c(OC)cc23)c(F)c1` [Example 43, 4-ethoxy-N-[3-fluoro-4-[[6-methoxy-7-(3-morpholinopropoxy)-4-quinolyl]oxy]phenyl]-1-(4-fluoro-2-methyl-phenyl)pyrazole-3-carboxamide], the IC50 on Axl [1] and against Axl [2] was < 500 nM in each case.
On to `COc1cc2nccc(Oc3ccc(NC(=O)c4cc(C)on4)cc3F)c2cc1OC` [Example 9, N-[4-[(6,7-dimethoxy-4-quinolyl)oxy]-3-fluoro-phenyl]-5-methyl-isoxazole-3-carboxamide], for which the IC50 at Axl [1] lay within 500 to 5000 nM.
With `COc1cc2c(Oc3ccc(NC(=O)c4nn(-c5ccc(F)cc5)cc4OCC4CC4)cc3F)ccnc2cc1OCCCN1CCOCC1` [Example 46, 4-(cyclopropylmethoxy)-N-[3-fluoro-4-[[6-methoxy-7-(3-morpholinopropoxy)-4-quinolyl]oxy]phenyl]-1-(4-fluorophenyl)pyrazole-3-carboxamide], the IC50 on Axl [1] and at Axl [2] was < 500 nM in each case.
For `COc1cc2c(Oc3ccc(NC(=O)c4nn(-c5ccc(F)cc5)cc4OCC4CCN(C)C4)cc3F)ccnc2cc1OCCCN1CCNCC1` (stereo not shown) [Example 71, N-[3-fluoro-4-[[6-methoxy-7-(3-piperazin-1-ylpropoxy)-4-quinolyl]oxy]phenyl]-1-(4-fluorophenyl)-4-[(1-methylpyrrolidin-3-yl)methoxy]pyrazole-3-carboxamide], the IC50 on Axl [1] is < 500 nM; against Axl [2] it was 500 to 5000 nM.
As to `COc1cc2nccc(Oc3ccc(NC(=O)c4nn(C)c5ccccc45)cc3F)c2cc1OC` [Example 8, N-[4-[(6,7-dimethoxy-4-quinolyl)oxy]-3-fluoro-phenyl]-1-methyl-indazole-3-carboxamide], on Axl [1], the IC50 was in the range of 500 to 5000 nM.
Take `COc1cc2nccc(Oc3ccc(NC(=O)c4nn(-c5ccc(F)cc5)cc4OCC4CC4)cc3Cl)c2cc1OC` [Example 34, N-[3-chloro-4-[(6,7-dimethoxy-4-quinolyl)oxy]phenyl]-4-(cyclopropylmethoxy)-1-(4-fluorophenyl)pyrazole-3-carboxamide]: the IC50 at Axl [1] and on Axl [2] was < 500 nM each time.
Regarding `CCOc1cn(-c2ccc(F)cc2Br)nc1C(=O)Nc1ccc(Oc2ccnc3cc(OCCCN4CCOCC4)c(OC)cc23)c(F)c1` [Example 49, 1-(2-bromo-4-fluoro-phenyl)-4-ethoxy-N-[3-fluoro-4-[[6-methoxy-7-(3-morpholinopropoxy)-4-quinolyl]oxy]phenyl]pyrazole-3-carboxamide], the IC50 on Axl [1] and at Axl [2] was < 500 nM throughout.
As for `COc1cc2c(Oc3ccc(NC(=O)c4nc(-c5ccccc5OC)cs4)nc3)ccnc2cc1OCC1CCNCC1` [Example 100, N-(5-((6-methoxy-7-(piperidin-4-ylmethoxy)quinolin-4-yl)oxy)pyridin-2-yl)-4-(2-methoxyphenyl)thiazole-2-carboxamide], the IC50 at Axl [1] was 500 to 5000 nM.
Take `COc1cc2nccc(Oc3ccc(NC(=O)c4ccncc4)cc3)c2cc1OC` [Ref5, N-(4-((6,7-dimethoxyquinolin-4-yl)oxy)phenyl)isonicotinamide, reference compound]: the results for the IC50 on Axl [1] and on Axl [1] (listed as compound 71) were > 10000 nM and ≥ 10000 nM, respectively.
As to `COc1cc2nccc(Oc3ccc(N)cc3F)c2cc1OC` [4-((6,7-dimethoxyquinolin-4-yl)oxy)-3-fluoroaniline], at Axl [1], the IC50 is > 10000 nM.
For `COc1cc2c(Oc3ccc(N)cc3F)ccnc2cc1OCC1CCN(C(=O)OC(C)(C)C)CC1` [tert-butyl 4-(((4-(4-amino-2-fluorophenoxy)-6-methoxyquinolin-7-yl)oxy)methyl)piperidine-1-carboxylate], on Axl [1], the IC50 was > 10000 nM.
Still for that read-out and setting: then `COc1cc2nccc(Oc3ccc(N)c(C)c3)c2cc1OC` [4-((6,7-dimethoxyquinolin-4-yl)oxy)-2-methylaniline], with > 10000 nM.
As to `COc1cc2nccc(Oc3ccc(NC(=O)c4ccco4)cc3)c2cc1OC` [Ref3, N-(4-((6,7-dimethoxyquinolin-4-yl)oxy)phenyl)furan-2-carboxamide, reference compound], the IC50 at Axl [1] was > 10000 nM; on Axl [1] (listed as compound 64), ≥ 10000 nM.
Molecule `COc1cc2nccc(Oc3ccc(NC(=O)c4nccs4)cc3F)c2cc1OC` [Example 6, N-[4-[(6,7-dimethoxy-4-quinolyl)oxy]-3-fluoro-phenyl]thiazole-2-carboxamide] had an IC50 on Axl [1] of 500 to 5000 nM.
For the molecule `COc1cc2nccc(Oc3ccc(N)cc3C)c2cc1OC` [4-((6,7-dimethoxyquinolin-4-yl)oxy)-3-methylaniline], the IC50 at Axl [1] was > 10000 nM.
Turning to `COc1cc2nccc(Oc3ccc(NC(=O)c4cnn(-c5ccccc5)c4C(F)(F)F)cc3F)c2cc1OC` [Ref1, N-(4-((6,7-dimethoxyquinolin-4-yl)oxy)-3-fluorophenyl)-1-phenyl-5-(trifluoromethyl)-1H-pyrazole-4-carboxamide, reference compound], the IC50 on Axl [1] is > 10000 nM.
Still for that read-out and setting: then `COc1cc2nccc(Oc3ccc(NC(=O)c4cc(-c5ccccc5)on4)cc3F)c2cc1OC` [Ref2, N-(4-((6,7-dimethoxyquinolin-4-yl)oxy)-3-fluorophenyl)-5-phenylisoxazole-3-carboxamide, reference compound], with > 10000 nM; and `COc1cc2nccc(Oc3ccc(NC(=O)c4csc(-c5ccc(C(F)(F)F)cc5)n4)cc3F)c2cc1OC` [Example 2, N-[4-[(6,7-dimethoxy-4-quinolyl)oxy]-3-fluoro-phenyl]-2-[4-(trifluoromethyl)phenyl]thiazole-4-carboxamide], with 500 to 5000 nM.
`COc1cc(Oc2ccnc3cc(OC)c(OC)cc23)ccc1N` [4-((6,7-dimethoxyquinolin-4-yl)oxy)-2-methoxyaniline]: the IC50 at Axl [1] was > 10000 nM.
For `CCOc1cn(-c2ccn(C)n2)nc1C(=O)Nc1ccc(Oc2ccnc3cc(OC)c(OC)cc23)c(F)c1` [Example 106, N-(4-((6,7-dimethoxyquinolin-4-yl)oxy)-3-fluorophenyl)-4-ethoxy-1′-methyl-1′H-[1,3′-bipyrazole]-3-carboxamide], the IC50 at Axl [1] is < 500 nM.
The same measure, in the same setting: then `COc1cc2nccc(Oc3ccc(N)cc3Cl)c2cc1OC` [3-chloro-4-((6,7-dimethoxyquinolin-4-yl)oxy)aniline], with > 10000 nM; and `COc1cc2nccc(Oc3ccc(N)nc3)c2cc1OC` [5-((6,7-dimethoxyquinolin-4-yl)oxy)pyridin-2-amine], with > 10000 nM.
As for `COc1cc2nccc(Oc3ccc(N)cc3)c2cc1OC` [4-((6,7-dimethoxyquinolin-4-yl)oxy)aniline], at Axl [1], the IC50 was > 10000 nM.
